Test results published in PubChem BioAssay (NCI).
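All cell lines were grown in 96-well plates and treated with compound for 48 hours. GI50 marks 50% less growth. At the TGI there is no net growth.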

Experiments:
Assay in all cases: inhibition of tumour cell growth, NCI panel, 48 h
HCT-116 colon = tested on: HCT-116 colon
SK-MEL-5 melanoma = tested on: SK-MEL-5 melanoma
MDA-MB-468 breast = tested on: MDA-MB-468 breast
HCT-15 colon = tested on: HCT-15 colon
MDA-MB-435 = tested on: MDA-MB-435
MDA-MB-231 breast = tested on: MDA-MB-231 breast
SW-620 colon = tested on: SW-620 colon
LOX IMVI melanoma = tested on: LOX IMVI melanoma
PC-3 prostate = tested on: PC-3 prostate
SK-MEL-28 melanoma = tested on: SK-MEL-28 melanoma
EKVX NSCLC = tested on: EKVX NSCLC
RXF 393 renal = tested on: RXF 393 renal
SR leukemia = tested on: SR leukemia
HT29 colon = tested on: HT29 colon
MOLT-4 leukemia = tested on: MOLT-4 leukemia
NCI-H460 lung = tested on: NCI-H460 lung
T-47D breast = tested on: T-47D breast
OVCAR-4 ovarian = tested on: OVCAR-4 ovarian
HCC-2998 colon = tested on: HCC-2998 colon
UO-31 renal = tested on: UO-31 renal
SNB-75 CNS = tested on: SNB-75 CNS
OVCAR-3 ovarian = tested on: OVCAR-3 ovarian
SF-295 CNS = tested on: SF-295 CNS
KM12 colon = tested on: KM12 colon
BT-549 breast = tested on: BT-549 breast
U251 CNS = tested on: U251 CNS
SF-268 CNS = tested on: SF-268 CNS
ACHN renal = tested on: ACHN renal
CCRF-CEM leukemia = tested on: CCRF-CEM leukemia
COLO 205 colon = tested on: COLO 205 colon

Compound: Cc1ccc(-c2cc(C(=O)N=Nc3c(O)[nH]c4ccccc34)c3ccccc3n2)cc1
- GI50 (HCT-116 colon): 1.97 µM
- TGI (HCT-116 colon): 4.46 µM
- GI50 (SK-MEL-5 melanoma): 5.66 µM
- TGI (SK-MEL-5 melanoma): 20 µM
- GI50 (MDA-MB-468 breast): 3.41 µM
- TGI (MDA-MB-468 breast): 15.4 µM
- GI50 (HCT-15 colon): 3.87 µM
- TGI (HCT-15 colon): 17.9 µM
- GI50 (MDA-MB-435): 3 µM
- TGI (MDA-MB-435): 11.5 µM
- GI50 (MDA-MB-231 breast): 2.39 µM
- TGI (MDA-MB-231 breast): 6.41 µM
- GI50 (SW-620 colon): 6.07 µM
- TGI (SW-620 colon): 34 µM
- GI50 (LOX IMVI melanoma): 3.63 µM
- TGI (LOX IMVI melanoma): 15.8 µM
- GI50 (PC-3 prostate): 17.2 µM
- TGI (PC-3 prostate): > 100 µM
- GI50 (SK-MEL-28 melanoma): 11.9 µM
- TGI (SK-MEL-28 melanoma): 26.6 µM
- GI50 (EKVX NSCLC): 6.08 µM
- TGI (EKVX NSCLC): 30.4 µM
- GI50 (RXF 393 renal): 1.88 µM
- TGI (RXF 393 renal): 6.11 µM
- GI50 (SR leukemia): 2.38 µM
- TGI (SR leukemia): > 100 µM
- GI50 (HT29 colon): 7.14 µM
- TGI (HT29 colon): 25.8 µM
- GI50 (MOLT-4 leukemia): 4.23 µM
- TGI (MOLT-4 leukemia): 38.5 µM
- GI50 (NCI-H460 lung): 2.87 µM
- TGI (NCI-H460 lung): 8.25 µM
- GI50 (T-47D breast): 5.38 µM
- TGI (T-47D breast): 47.3 µM
- GI50 (OVCAR-4 ovarian): 3.43 µM
- TGI (OVCAR-4 ovarian): 26.6 µM
- GI50 (HCC-2998 colon): 3.84 µM
- TGI (HCC-2998 colon): 15.3 µM
- GI50 (UO-31 renal): 10.7 µM
- TGI (UO-31 renal): 22.6 µM
- GI50 (SNB-75 CNS): 2.54 µM
- TGI (SNB-75 CNS): 17.3 µM
- GI50 (OVCAR-3 ovarian): 5.2 µM
- TGI (OVCAR-3 ovarian): 25 µM
- GI50 (SF-295 CNS): 13.3 µM
- TGI (SF-295 CNS): 28.5 µM
- GI50 (KM12 colon): 5.84 µM
- TGI (KM12 colon): 73.4 µM
- GI50 (BT-549 breast): 3.09 µM
- TGI (BT-549 breast): 18 µM
- GI50 (U251 CNS): 3.02 µM
- TGI (U251 CNS): 10.7 µM
- GI50 (SF-268 CNS): 12.8 µM
- TGI (SF-268 CNS): > 100 µM
- GI50 (ACHN renal): 10.3 µM
- TGI (ACHN renal): 22.2 µM
- GI50 (CCRF-CEM leukemia): 4.73 µM
- TGI (CCRF-CEM leukemia): > 100 µM
- GI50 (COLO 205 colon): 15.4 µM
